Consider 1 compound from PMC4795174 (Biochemistry, 2015).

The assay addresses BlaC (β-lactamase) (Mycobacterium tuberculosis, UniProt P9WKD3). In kind it is biochemical. To be noted: read-out: KI.

Sequence of BlaC (β-lactamase) (P9WKD3 41-307): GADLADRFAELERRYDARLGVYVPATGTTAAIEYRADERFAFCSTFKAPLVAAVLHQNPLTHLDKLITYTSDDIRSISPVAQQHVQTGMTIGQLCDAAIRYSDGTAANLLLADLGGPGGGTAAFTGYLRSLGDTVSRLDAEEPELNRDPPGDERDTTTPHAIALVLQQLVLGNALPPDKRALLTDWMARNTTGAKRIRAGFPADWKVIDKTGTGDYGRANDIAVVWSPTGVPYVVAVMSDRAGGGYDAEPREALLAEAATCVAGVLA

With `O=C(O)[C@H]1/C(=C/CO)O[C@@H]2CC(=O)N21` [clavulanate], the KI (inactivation) turned out to be 6.3 µM.
